Reference: patent US11566007B2, “Ras inhibitors” (Revolution Medicines, Inc., priority 2019, dated 2023)
Several values for one entry are separate records, joined by “and”; a condition that tells them apart may be missing. Identical values can stand only once.

Tests used:
K-Ras G12C = K-Ras G12C (Homo sapiens (Human), UniProt P01116+P62937, G12C); test: Ras-Raf (BRAF RBD) disruption / FRET / MOA assay, KRAS G12C; type: biochemical; settings: KRAS G12C; Ras-Raf disruption/FRET/MOA assay; read-out: IC50* KRAS G12C FRET data
K-Ras G12C, sequence (P01116-2 other isoform, or with tags, fused parts or gaps G12C): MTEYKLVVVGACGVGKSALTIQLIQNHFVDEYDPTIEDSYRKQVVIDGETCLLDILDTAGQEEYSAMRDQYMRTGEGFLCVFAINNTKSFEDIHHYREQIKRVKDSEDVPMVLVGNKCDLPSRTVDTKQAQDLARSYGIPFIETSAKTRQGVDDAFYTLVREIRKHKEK
K-Ras G12C, sequence (P62937 whole entry): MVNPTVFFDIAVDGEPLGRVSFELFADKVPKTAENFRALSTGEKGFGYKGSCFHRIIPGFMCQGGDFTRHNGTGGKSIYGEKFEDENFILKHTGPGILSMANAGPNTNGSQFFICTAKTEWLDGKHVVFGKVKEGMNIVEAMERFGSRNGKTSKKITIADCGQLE
Summary of the method: (§1)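 Ternary complex formation (Ras–compound–cyclophilin A) displacing BRAF RBD, monitored by TR-FRET. Three hours at 25° C with compound (top 30 μM final), then 1.5 h with the labelled antibodies. Lower ratio than DMSO indicates disruption; IC50 reported.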

KRAS G13D = KRAS G13D (Homo sapiens (Human), UniProt P01116+P62937, G13D); test: Ras-Raf (BRAF RBD) disruption / FRET / MOA assay, KRAS G13D; type: biochemical; settings: read-out: IC50* KRAS G13D FRET data
KRAS G13D, sequence (P01116-2 other isoform, or with tags, fused parts or gaps G13D): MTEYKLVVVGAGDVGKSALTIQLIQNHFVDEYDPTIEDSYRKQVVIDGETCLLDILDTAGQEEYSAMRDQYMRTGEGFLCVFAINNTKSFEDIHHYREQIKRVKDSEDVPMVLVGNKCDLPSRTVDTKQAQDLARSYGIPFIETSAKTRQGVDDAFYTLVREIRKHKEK
KRAS G13D, sequence (P62937 whole entry): as the sequence (P62937 whole entry) above
Summary of the method: as §1

NRAS G12C = NRAS G12C (Homo sapiens (Human), UniProt P01111+P62937, G12C); test: Ras-Raf (BRAF RBD) disruption / FRET / MOA assay, NRAS G12C; type: biochemical; settings: read-out: IC50* NRAS G12C FRET data
NRAS G12C, sequence (P01111 whole entry G12C): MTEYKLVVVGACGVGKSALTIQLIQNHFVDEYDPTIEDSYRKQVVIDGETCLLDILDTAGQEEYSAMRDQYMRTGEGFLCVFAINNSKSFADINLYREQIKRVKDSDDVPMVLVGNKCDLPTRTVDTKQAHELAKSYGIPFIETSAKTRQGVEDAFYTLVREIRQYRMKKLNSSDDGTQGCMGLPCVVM
NRAS G12C, sequence (P62937 whole entry): as the sequence (P62937 whole entry) above
Summary of the method: as §1

KRAS G12S = KRAS G12S (Homo sapiens (Human), UniProt P01116+P62937, G12S); test: Ras-Raf (BRAF RBD) disruption / FRET / MOA assay, KRAS G12S; type: biochemical; settings: Ras-Raf disruption/FRET/MOA assay; class symbols; read-out: KRAS G12S FRET data IC50
KRAS G12S, sequence (P01116-2 other isoform, or with tags, fused parts or gaps G12S): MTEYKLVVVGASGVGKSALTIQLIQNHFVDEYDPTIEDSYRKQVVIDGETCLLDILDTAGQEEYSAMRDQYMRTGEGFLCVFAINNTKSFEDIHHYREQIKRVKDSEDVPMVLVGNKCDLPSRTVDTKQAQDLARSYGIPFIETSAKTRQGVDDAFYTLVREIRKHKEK
KRAS G12S, sequence (P62937 whole entry): as the sequence (P62937 whole entry) above
Summary of the method: as §1

[1] = test system: NCI-H358 cells (K-Ras G12C); test: Potency assay: pERK in NCI-H358 cells; type: cell-based, human; settings: Homo sapiens, NCI-H358; H358 KRAS G12C; read-out: pERK EC50
Summary of the method: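 4 h cpd, 37 °C; 10-pt 3-fold series, 10 mM DMSO top stock, duplicates. Readout pERK: AlphaLISA SureFire Ultra or In-Cell Western (IR-800CW secondary, DRAQ5 DNA stain). IC50, 4-PL fit vs log conc.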

KRAS G12D = KRAS G12D (Homo sapiens (Human), UniProt P01116+P62937, G12D); test: Ras-Raf (BRAF RBD) disruption / FRET / MOA assay, KRAS G12D; type: biochemical; settings: Ras-Raf disruption/FRET/MOA assay; class symbols; read-out: KRAS G12D FRET data IC50
KRAS G12D, sequence (P01116-2 other isoform, or with tags, fused parts or gaps G12D): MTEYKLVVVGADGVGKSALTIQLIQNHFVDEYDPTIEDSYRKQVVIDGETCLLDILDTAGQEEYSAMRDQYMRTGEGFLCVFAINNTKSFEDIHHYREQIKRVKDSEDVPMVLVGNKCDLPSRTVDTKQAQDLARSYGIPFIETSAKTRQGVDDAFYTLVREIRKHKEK
KRAS G12D, sequence (P62937 whole entry): as the sequence (P62937 whole entry) above
Summary of the method: as §1

K-Ras G13C = K-Ras G13C (Homo sapiens (Human), UniProt P01116+P62937, G13C); test: Ras-Raf (BRAF RBD) disruption / FRET / MOA assay, KRAS G13C; type: biochemical; settings: KRAS G13C; Ras-Raf disruption/FRET/MOA assay; read-out: IC50* KRAS G13C FRET data
K-Ras G13C, sequence (P01116-2 other isoform, or with tags, fused parts or gaps G13C): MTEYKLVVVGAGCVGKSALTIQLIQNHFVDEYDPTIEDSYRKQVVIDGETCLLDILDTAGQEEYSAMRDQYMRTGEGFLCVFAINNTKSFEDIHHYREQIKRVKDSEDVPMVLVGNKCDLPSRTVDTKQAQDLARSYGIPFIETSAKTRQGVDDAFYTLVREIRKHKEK
K-Ras G13C, sequence (P62937 whole entry): as the sequence (P62937 whole entry) above
Summary of the method: as §1

NCI-H358 (K-Ras G12C) = test: CellTiter-Glo cell viability assay, NCI-H358; type: cell-based, human; settings: Homo sapiens, NCI-H358, 120 h, NCI-H358, 5-day treatment; class symbols; read-out: Additional H358 Cell Viability assay data (K-Ras G12C, IC50)
Summary of the method: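 Viability of K-Ras mutant lines is measured by ATP luminescence after five days of compound treatment. Percent of DMSO control is calculated and dose-response data are fitted with a four-parameter logistic equation.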

KRAS G12V = KRAS G12V (Homo sapiens (Human), UniProt P01116+P62937, G12V); test: Ras-Raf (BRAF RBD) disruption / FRET / MOA assay, KRAS G12V; type: biochemical; settings: read-out: IC50* KRAS G12V FRET data
KRAS G12V, sequence (P01116-2 other isoform, or with tags, fused parts or gaps G12V): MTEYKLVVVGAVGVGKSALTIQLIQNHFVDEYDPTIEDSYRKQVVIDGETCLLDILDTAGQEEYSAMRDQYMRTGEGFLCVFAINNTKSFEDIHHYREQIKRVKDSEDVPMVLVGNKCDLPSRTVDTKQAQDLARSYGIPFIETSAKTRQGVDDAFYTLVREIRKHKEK
KRAS G12V, sequence (P62937 whole entry): as the sequence (P62937 whole entry) above
Summary of the method: as §1

KRAS WT = KRAS WT (Homo sapiens (Human), UniProt P01116+P62937); test: Ras-Raf (BRAF RBD) disruption / FRET / MOA assay, KRAS WT; type: biochemical; settings: read-out: IC50* KRAS WT FRET data
KRAS WT, sequence (P01116-2 other isoform, or with tags, fused parts or gaps): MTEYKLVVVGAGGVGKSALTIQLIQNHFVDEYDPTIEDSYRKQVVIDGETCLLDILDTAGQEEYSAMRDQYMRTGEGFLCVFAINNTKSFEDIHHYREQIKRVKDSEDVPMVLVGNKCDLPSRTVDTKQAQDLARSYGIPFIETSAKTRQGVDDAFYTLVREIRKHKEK
KRAS WT, sequence (P62937 whole entry): as the sequence (P62937 whole entry) above
Summary of the method: as §1

IC50 (K-Ras G12C)	IC50 (KRAS G13D)	IC50 (NRAS G12C)	IC50 (KRAS G12S)	EC50 [1]	IC50 (KRAS G12D)	IC50 (K-Ras G13C)	IC50 (NCI-H358 (K-Ras G12C))	IC50 (KRAS G12V)	IC50 (KRAS WT)	Structure (SMILES)
< 10 nM	> 10000 nM	10 to 100 nM	1000 to 10000 nM	< 5000 nM	> 10000 nM	1000 to 10000 nM	< 10 nM	1000 to 10000 nM	1000 to 10000 nM	CCn1c(-c2cccnc2[C@H](C)OC)c2c3cc(ccc31)-c1csc(n1)C[C@H](NC(=O)[C@H](C(C)C)N(C)C(=O)[C@H]1CCN(C(=O)C#CC(C)(C)N(C)C)C1)C(=O)N1CCC[C@H](N1)C(=O)OCC(C)(C)C2 (atropisomer, axis not shown) [Example A291]
< 10 nM	1000 to 10000 nM	< 10 nM	1000 to 10000 nM	< 5000 nM	1000 to 10000 nM	100 to 1000 nM	< 10 nM	1000 to 10000 nM	1000 to 10000 nM	CCn1c(-c2cccnc2[C@H](C)OC)c2c3cc(ccc31)-c1csc(n1)C[C@H](NC(=O)[C@H](C(C)C)N1CC[C@]3(CCN(C(=O)C#CC(C)(C)N(C)C)C3)C1=O)C(=O)N1CCC[C@H](N1)C(=O)OCC(C)(C)C2 (atropisomer, axis not shown) [Example A411]
100 to 1000 nM	> 10000 nM	100 to 1000 nM	1000 to 10000 nM	< 5000 nM	> 10000 nM	> 10000 nM	10 to 100 nM	1000 to 10000 nM	> 10000 nM	CC#CC(=O)N1CC[C@H](C(=O)N(C)[C@H](C(=O)N[C@H]2Cc3cccc(c3)-c3ccc4c(c3)c(c(-c3cccnc3[C@H](C)OC)n4CC)CC(C)(C)COC(=O)[C@@H]3CCCN(N3)C2=O)C(C)C)C1 (atropisomer, axis not shown) [Example A173]
10 to 100 nM	1000 to 10000 nM	10 to 100 nM	100 to 1000 nM	< 5000 nM	1000 to 10000 nM	100 to 1000 nM	< 10 nM	100 to 1000 nM	1000 to 10000 nM	C=CC(=O)N1CC[C@](C#N)(C(=O)N(C)[C@H](C(=O)N[C@H]2Cc3cccc(c3)-c3ccc4c(c3)c(c(-c3cccnc3[C@H](C)OC)n4CC)CC(C)(C)COC(=O)[C@@H]3CCCN(N3)C2=O)C(C)C)C1 (atropisomer, axis not shown) [Example A443]
10 to 100 nM	> 10000 nM	100 to 1000 nM	> 10000 nM	< 5000 nM	> 10000 nM	1000 to 10000 nM	10 to 100 nM	> 10000 nM	> 10000 nM	CCn1c(-c2cccnc2[C@H](C)OC)c2c3cc(ccc31)-c1nsc(n1)C[C@H](NC(=O)[C@H](C(C)C)N(C)C(=O)[C@H]1CCN(C(=O)C#CCN3CCOCC3)C1)C(=O)N1CCC[C@H](N1)C(=O)OCC(C)(C)C2 (atropisomer, axis not shown) [Example A201]
1000 to 10000 nM	> 10000 nM	1000 to 10000 nM	> 10000 nM	< 5000 nM	> 10000 nM	1000 to 10000 nM	100 to 1000 nM	1000 to 10000 nM	> 10000 nM	CC#CC(=O)N1CC[C@H](C(=O)N(C)[C@H](C(=O)N[C@H]2Cc3nc(ns3)-c3ccc4c(c3)c(c(-c3cccnc3[C@H](C)OC)n4CC)CC(C)(C)COC(=O)[C@@H]3CCCN(N3)C2=O)C(C)C)C1 (atropisomer, axis not shown) [Example A289]
100 to 1000 nM	> 10000 nM	100 to 1000 nM	1000 to 10000 nM	< 5000 nM	> 10000 nM	1000 to 10000 nM	10 to 100 nM	1000 to 10000 nM	1000 to 10000 nM	CC#CC(=O)N1CC[C@H](C(=O)N(C)[C@H](C(=O)N[C@H]2Cc3cccc(c3)-c3ccc4c(c3)c(c(-c3cccnc3[C@H](C)OC)n4CC)CC(C)(C)COC(=O)[C@@H]3CCCN(N3)C2=O)C2CCCC2)C1 (atropisomer, axis not shown) [Example A310]

Structure (SMILES)	IC50 (K-Ras G12C)	IC50 (KRAS G13D)	IC50 (NRAS G12C)	IC50 (KRAS G12S)	EC50 [1]	IC50 (KRAS G12D)	IC50 (K-Ras G13C)	IC50 (NCI-H358 (K-Ras G12C))	IC50 (KRAS G12V)	IC50 (KRAS WT)
C=CC(=O)N1CC[C@H](C(=O)N(C)[C@H](C(=O)N[C@H]2Cc3cccc(c3)-c3ccc4c(c3)c(c(-c3cccnc3[C@H](C)OC)n4CC)CC(C)(C)COC(=O)[C@@H]3CCCN(N3)C2=O)C2COC2)C1 (atropisomer, axis not shown) [Example A469]	100 to 1000 nM	1000 to 10000 nM	100 to 1000 nM	1000 to 10000 nM	< 5000 nM	> 10000 nM	1000 to 10000 nM	100 to 1000 nM	1000 to 10000 nM	1000 to 10000 nM
C=CC(=O)N1C[C@@H](C)N(C(=O)N(C)[C@H](C(=O)N[C@H]2Cc3nc(cs3)-c3ccc4c(c3)c(c(-c3cccnc3[C@H](C)OC)n4CC)CC(C)(C)COC(=O)[C@@H]3CCCN(N3)C2=O)C(C)C)C[C@H]1C (atropisomer, axis not shown) [Example A406]	100 to 1000 nM	100 to 1000 nM	100 to 1000 nM	100 to 1000 nM	< 5000 nM	1000 to 10000 nM	100 to 1000 nM	10 to 100 nM	100 to 1000 nM	100 to 1000 nM
C=CC(=O)NC1CN(C(=O)N(C)[C@H](C(=O)N[C@H]2Cc3nc(cs3)-c3ccc4c(c3)c(c(-c3cccnc3[C@H](C)OC)n4CC)CC(C)(C)COC(=O)[C@@H]3CCCN(N3)C2=O)C(C)C)C1 (atropisomer, axis not shown) [Example A490]	10 to 100 nM	100 to 1000 nM	10 to 100 nM	100 to 1000 nM	< 5000 nM	1000 to 10000 nM	100 to 1000 nM	10 to 100 nM	100 to 1000 nM	100 to 1000 nM
CCn1c(-c2cccnc2[C@H](C)OC)c2c3cc(ccc31)-c1cccc(c1)C[C@H](NC(=O)[C@H](C(C)C)N(C)C(=O)[C@H]1CCN(C(=O)C#CC3CCO3)C1)C(=O)N1CCC[C@H](N1)C(=O)OCC(C)(C)C2 (mixture of isomers) [Example A509]	< 10 nM	1000 to 10000 nM	< 10 nM	1000 to 10000 nM	< 5000 nM	> 10000 nM	100 to 1000 nM	< 10 nM	1000 to 10000 nM	1000 to 10000 nM
CC#CC(=O)N1C[C@H](C)[C@H](C(=O)N(C)[C@H](C(=O)N[C@H]2Cc3cccc(c3)-c3ccc4c(c3)c(c(-c3cccnc3[C@H](C)OC)n4CC)CC(C)(C)COC(=O)[C@@H]3CCCN(N3)C2=O)C2CCCC2)C1 (atropisomer, axis not shown) [Example A402]	100 to 1000 nM	> 10000 nM	100 to 1000 nM	1000 to 10000 nM	< 5000 nM	> 10000 nM	1000 to 10000 nM	10 to 100 nM	1000 to 10000 nM	1000 to 10000 nM
CCn1c(-c2cccnc2[C@H](C)OC)c2c3cc(ccc31)-c1cc(O)cc(c1)C[C@H](NC(=O)[C@H](C(C)C)N(C)C(=O)[C@H]1CCN(C(=O)C#CCN(C)C)C1)C(=O)N1CCC[C@H](N1)C(=O)OCC(C)(C)C2 (atropisomer, axis not shown) [Example A131]	< 10 nM	100 to 1000 nM and 1000 to 10000 nM	< 10 nM	100 to 1000 nM and 1000 to 10000 nM	< 5000 nM	1000 to 10000 nM and 100 to 1000 nM	10 to 100 nM and < 10 nM	< 10 nM	100 to 1000 nM and 1000 to 10000 nM	100 to 1000 nM and 1000 to 10000 nM
